Assays:
Format in all cases: in vivo, swine
postpartum sows = experiment: Single timed deslorelin in SAIB injection 96 hours post-weaning, single timed insemination without estrus detection
Protocol: Approximately 170 postpartum sows were randomly divided into two equal groups comprised of controls and treated. Following weaning, the controls were detected for estrus and bred following the normal standard operating procedures for the farms on which they resided. The treated sows received a 50 mcg dose of deslorelin in SAIB at 96 hours post-weaning and were bred with a single insemination 28+/−2 hours later with no regard to estrus detection. The sows were examined for pregnancy by ultrasound at 21 days and slaughtered around 28 days post breeding. The entire reproductive tract was removed and corpora lutea and embryos were counted.

mature postpartum sows = experiment: Intravulvar deslorelin in SAIB at estrus detection, AI breeding of mature postpartum sows; conditions: 50 μg intravulvar at first estrus detection
Protocol: Sows were assigned randomly in blocks of two to either control or to be injected intravulvar with 50 mcg of deslorelin in SAIB at the time of estrus detection for sows first detected in estrus in the a.m. and 12 hours later for those first detected in estrus in the p.m. Treated animals were bred AI upon detected estrus and again 24 hours later if still in estrus. Controls received a saline injection on first detected estrus behavior estrus detection and were bred according to the farm's normal procedures.

[1] = test system: ovariectomized estrogen primed gilt model; experiment: Dose response study of deslorelin in SAIB, LH release determined by RIA; conditions: single injection of 50 mcg
Protocol: A dose response study was performed using deslorelin in SAIB in an ovariectomized estrogen primed gilt model (Barb, et al. (1999) Proceed. Int'l. Symp. Control. Rel. Bioact. Mater., 26).

## CCNC(=O)[C@@H]1CCCN1C(=O)[C@H](CCCN=C(N)N)NC(=O)[C@H](CC(C)C)NC(=O)[C@@H](Cc1c[nH]c2ccccc12)NC(=O)[C@H](Cc1ccc(O)cc1)NC(=O)[C@H](CO)NC(=O)[C@H](Cc1c[nH]c2ccccc12)NC(=O)[C@H](Cc1cnc[nH]1)NC(=O)[C@@H]1CCC(=O)N1 [Deslorelin, deslorelin]
Postpartum sows; 50 mcg at 96 hours post-weaning, single insemination 28+/-2 hours later, 84 in group, ultrasound at 21 days
  Sows Pregnant: 60
Postpartum sows; single timed injection post-weaning, single timed insemination, no estrus detection
  pregnancy rates (in words): normal pregnancy rates
Mature postpartum sows; AI, AI again if in estrus the next day
  Length of Estrus (Hrs.): 40.81 (n = 69) Hrs.
Mature postpartum sows; difference to saline control, listed as deslorelin in SAIB
  Live piglet number per litter, greater in Deslorelin versus Saline sows: 0.6
[1]
  time at which LH returned to base level: ≤ 18 h
[1]; normal value from Hansel et al. 1973
  LH peak relative to normal value: about twice normal value

— patent US20190183963A1, “PROCESS FOR THE SYNCHRONIZATION OF OVULATION FOR TIMED BREEDING WITHOUT HEAT DETECTION” (priority 2003, published 2019)
